Non-standard residues stand in square brackets, D forms with d. Residues, ends and D or L forms follow the SMILES beside them. *: point of attachment. Desaminotyrosyl = O=C(CCc1ccc(O)cc1)*; hArg = N=C(N)NCCCC[C@H](N)C(=O)O; Agmatine = N=C(N)NCCCCN*; Nle = CCCC[C@H](N)C(=O)O; Orn = NCCC[C@H](N)C(=O)O; Abu = CC[C@H](N)C(=O)O; GABA = NCCCC(=O)O

Results on five compounds are retold here after US9393271B2, “GHRH agonists for islet cell transplantation and function and the treatment of diabetes” (UNIVERSITY OF MIAMI, priority 2012, dated 2016).

One assay deals with GH level. Nature of the assay: In vivo endocrine activity (GH release), subcutaneous administration. Conditions: rat, s.c. The procedure:
Subcutaneous Administration. Adult male rats were used and anesthetized with pentobarbital (6 mg/100 g, b.w.), by i.p. injection. […] Blood samples were taken from the jugular vein 5, 15 and/or 30 minutes after the injection. The blood samples were centrifuged, plasma was removed and the GH level was measured by ELISA. The results are summarized in terms of potency in Table 9.

In assay [1] the target is T1, GHRH receptor (human pituitary membrane homogenates) (Homo sapiens, UniProt Q02643).
T1 sequence (Q02643 23-423): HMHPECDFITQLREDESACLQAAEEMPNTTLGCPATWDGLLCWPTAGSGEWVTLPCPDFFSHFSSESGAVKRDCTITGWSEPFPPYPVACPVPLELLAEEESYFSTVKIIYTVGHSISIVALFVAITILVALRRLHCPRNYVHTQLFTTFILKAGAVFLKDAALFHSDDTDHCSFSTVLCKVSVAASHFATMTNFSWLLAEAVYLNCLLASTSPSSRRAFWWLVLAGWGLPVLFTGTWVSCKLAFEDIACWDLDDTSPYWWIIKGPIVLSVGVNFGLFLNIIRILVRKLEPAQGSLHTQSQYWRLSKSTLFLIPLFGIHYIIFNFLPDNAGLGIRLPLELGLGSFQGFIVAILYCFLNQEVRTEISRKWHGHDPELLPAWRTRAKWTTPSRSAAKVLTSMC
Nature of the assay: GHRH receptor binding, ligand competition with 125I-labeled JV-1-42 (Table 5). Conditions: for Relative affinitiy (Binding potency) vs GHRH: GHRH(1-29) = 1; for Relative affinitiy (Binding potency) vs JI-38: JI-38 = 1.
Excerpt: Normal human pituitaries were purchased from the National Hormone and Peptide Program (A. F. Parlow, Los Angeles, County Harbor-UCLA Medical Center, Torrance, Calif.).

Assay [2] has as its target T1, GHRH receptor (human pituitary membrane homogenates). As to the kind of experiment: GHRH receptor binding, ligand competition with 125I-labeled JV-1-42 (Table 7). Particulars: JI-38 = 1. The arrangement: Normal human pituitaries were purchased from the National Hormone and Peptide Program; tissue National Hormone and Peptide Program (A. F. Parlow, Harbor-UCLA Medical Center, Torrance, Calif.); host or cells: normal human pituitary, membrane fraction / homogenate.

The target is the same in assay [3]. Nature of the assay: GHRH receptor binding, ligand competition with 125I-labeled [His1,Nle27]hGHRH(1-32)NH2 (Table 6). Particulars: for Relative affinitiy (Binding potency) vs GHRH: GHRH(1-29) = 1; for Relative affinitiy (Binding potency) vs JI-38: JI-38 = 1.

For `CCCC[C@H](NC(=O)[C@@H](NC(=O)[C@H](CC(=O)O)NC(=O)[C@H](CCC(N)=O)NC(=O)[C@H](CC(C)C)NC(=O)[C@H](CC(C)C)NC(=O)[C@H](CCCN)NC(=O)[C@H](CCCNC(=N)N)NC(=O)[C@H](C)NC(=O)[C@H](CO)NC(=O)[C@H](CC(C)C)NC(=O)[C@H](CCC(N)=O)NC(=O)[C@H](CC)NC(=O)[C@H](CC(C)C)NC(=O)[C@@H](NC(=O)[C@H](CCCN)NC(=O)[C@H](CCCNC(=N)N)NC(=O)[C@H](Cc1ccc(O)cc1)NC(=O)[C@H](CO)NC(=O)[C@H](CCC(N)=O)NC(=O)[C@@H](NC(=O)[C@H](Cc1ccccc1)NC(=O)[C@@H](NC(=O)[C@H](C)NC(=O)[C@H](CC(=O)O)NC(=O)[C@@H](C)NC(=O)CCc1ccc(O)cc1)[C@@H](C)CC)[C@@H](C)O)C(C)C)[C@@H](C)CC)C(=O)N[C@@H](CC(=O)O)C(=O)NCCCCNC(=N)N` [Peptide P-20350, [Dat^1, D-Ala^2, Gln^8, Orn^12, Abu^15, Orn^21, Nle^27, Asp^28, Agm^29]hGHRH(1-29)] (Desaminotyrosyl-[dA]DAIFTQSYR[Orn]VL[Abu]QLSAR[Orn]LLQDI[Nle]D-Agmatine), the “Stimulation of growth hormone levels after s.c. administration (comparison in words)” value in the assay on GH level was “stimulated greater growth hormone levels than hGHRH or JI-38”. In assay [1], the “Relative affinitiy (Binding potency) vs GHRH” value (from here on “Relative affinitiy … vs GHRH”) is given as 101.5. For the same compound, the results for the “Relative affinitiy (Binding potency) vs JI-38” value (“Relative affinitiy … vs JI-38” below) in assay [1] and in assay [2] were 42.7 and 8.37, respectively.
Regarding `CCCC[C@H](NC(=O)[C@@H](NC(=O)[C@H](CC(=O)O)NC(=O)[C@H](CCC(N)=O)NC(=O)[C@H](CC(C)C)NC(=O)[C@H](CC(C)C)NC(=O)[C@H](CCCN)NC(=O)[C@H](CCCNC(=N)N)NC(=O)[C@H](C)NC(=O)[C@H](CO)NC(=O)[C@H](CC(C)C)NC(=O)[C@H](CCC(N)=O)NC(=O)[C@H](CC)NC(=O)[C@H](CC(C)C)NC(=O)[C@@H](NC(=O)[C@H](CCCN)NC(=O)[C@H](CCCNC(=N)N)NC(=O)[C@H](Cc1ccc(O)cc1)NC(=O)[C@H](CO)NC(=O)[C@H](CC(N)=O)NC(=O)[C@@H](NC(=O)[C@H](Cc1ccccc1)NC(=O)[C@@H](NC(=O)[C@H](C)NC(=O)[C@H](CC(=O)O)NC(=O)[C@@H](C)NC(=O)CCc1ccc(O)cc1)[C@@H](C)CC)[C@@H](C)O)C(C)C)[C@@H](C)CC)C(=O)N[C@@H](CC(=O)O)C(=O)N[C@@H](CCCNC(=N)N)C(=O)N[C@@H](CCCCNC(=N)N)C(N)=O` [Peptide P-23252, [Dat^1-D-Ala^2, Orn^12, Abu^15, Orn^21, Nle^27, Asp^28, Har^30]hGHRH(1-30)NH2] (Desaminotyrosyl-[dA]DAIFTNSYR[Orn]VL[Abu]QLSAR[Orn]LLQDI[Nle]DR[hArg]-NH2), in assay [3], the “Relative affinitiy … vs GHRH” value worked out at 42.3 and the “Relative affinitiy … vs JI-38” value was 13.9.
On the same counts, the results for `CCCC[C@H](NC(=O)[C@@H](NC(=O)[C@H](CC(=O)O)NC(=O)[C@H](CCC(N)=O)NC(=O)[C@H](CC(C)C)NC(=O)[C@H](CC(C)C)NC(=O)[C@H](CCCN)NC(=O)[C@H](CCCNC(=N)N)NC(=O)[C@H](C)NC(=O)[C@H](CO)NC(=O)[C@H](CC(C)C)NC(=O)[C@H](CCC(N)=O)NC(=O)[C@H](CC)NC(=O)[C@H](CC(C)C)NC(=O)[C@@H](NC(=O)[C@H](CCCN)NC(=O)[C@H](CCCNC(=N)N)NC(=O)[C@H](Cc1ccc(O)cc1)NC(=O)[C@H](CO)NC(=O)[C@@H](NC(=O)[C@@H](NC(=O)[C@H](Cc1ccccc1)NC(=O)[C@@H](NC(=O)[C@H](C)NC(=O)[C@H](CC(=O)O)NC(=O)[C@@H](C)NC(=O)CCc1ccc(O)cc1)[C@@H](C)CC)[C@@H](C)O)[C@@H](C)O)C(C)C)[C@@H](C)CC)C(=O)N[C@@H](CC(=O)O)C(=O)N[C@@H](CCCNC(=N)N)C(=O)N[C@@H](CCCCNC(=N)N)C(N)=O` [Peptide P-23254, [Dat^1, D-Ala^2, Thr^8, Orn^12, Abu^15, Orn^21, Nle^27, Asp^28, Har^30]hGHRH(1-30)NH2] (Desaminotyrosyl-[dA]DAIFTTSYR[Orn]VL[Abu]QLSAR[Orn]LLQDI[Nle]DR[hArg]-NH2) are 84.5 and 27.8.
With `CCCC[C@H](NC(=O)[C@@H](NC(=O)[C@H](CC(=O)O)NC(=O)[C@H](CCC(N)=O)NC(=O)[C@H](CC(C)C)NC(=O)[C@H](CC(C)C)NC(=O)[C@H](CCCN)NC(=O)[C@H](CCCNC(=N)N)NC(=O)[C@H](C)NC(=O)[C@H](CO)NC(=O)[C@H](CC(C)C)NC(=O)[C@H](CCC(N)=O)NC(=O)[C@H](CC)NC(=O)[C@H](CC(C)C)NC(=O)[C@@H](NC(=O)[C@H](CCCN)NC(=O)[C@H](CCCNC(=N)N)NC(=O)[C@H](Cc1ccc(O)cc1)NC(=O)[C@H](CO)NC(=O)[C@H](C)NC(=O)[C@@H](NC(=O)[C@H](Cc1ccccc1)NC(=O)[C@@H](NC(=O)[C@H](C)NC(=O)[C@H](CC(=O)O)NC(=O)[C@@H](C)NC(=O)CCc1ccc(O)cc1)[C@@H](C)CC)[C@@H](C)O)C(C)C)[C@@H](C)CC)C(=O)N[C@@H](CC(=O)O)C(=O)N[C@@H](CCCNC(=N)N)C(=O)N[C@@H](CCCCNC(=N)N)C(N)=O` [Peptide P-23256, [Dat^1, D-Ala^2, Ala^8, Orn^12, Abu^15, Orn^21, Nle^27, Asp^28, Har^30]hGHRH(1-30)NH2] (Desaminotyrosyl-[dA]DAIFTASYR[Orn]VL[Abu]QLSAR[Orn]LLQDI[Nle]DR[hArg]-NH2), in assay [3], the “Relative affinitiy … vs GHRH” value is recorded as 148.0 and the “Relative affinitiy … vs JI-38” value is given as 48.7.
In the case of `CCCC[C@H](NC(=O)[C@@H](NC(=O)[C@H](CC(=O)O)NC(=O)[C@H](CCC(N)=O)NC(=O)[C@H](CC(C)C)NC(=O)[C@H](CC(C)C)NC(=O)[C@H](CCCN)NC(=O)[C@H](CCCNC(=N)N)NC(=O)[C@H](C)NC(=O)[C@H](CO)NC(=O)[C@H](CC(C)C)NC(=O)[C@H](CCC(N)=O)NC(=O)[C@H](CC)NC(=O)[C@H](CC(C)C)NC(=O)[C@@H](NC(=O)[C@H](CCCN)NC(=O)[C@H](CCCNC(=N)N)NC(=O)[C@H](Cc1ccc(O)cc1)NC(=O)[C@H](CO)NC(=O)[C@H](CC(N)=O)NC(=O)[C@@H](NC(=O)[C@H](Cc1ccccc1)NC(=O)[C@@H](NC(=O)[C@H](C)NC(=O)[C@H](CC(=O)O)NC(=O)[C@@H](C)NC(=O)CCc1ccc(O)cc1)[C@@H](C)CC)[C@@H](C)O)C(C)C)[C@@H](C)CC)C(=O)N[C@@H](CO)C(=O)N[C@@H](CCCNC(=N)N)C(=O)N[C@@H](CCC(N)=O)C(=O)NCCCC(N)=O` [Peptide P-29702, [Dat^1, D-Ala^2, Orn^12, Abu^15, Orn^21, Nle^27, Gln-Gab^30]hGHRH(1-30)NH2] (Desaminotyrosyl-[dA]DAIFTNSYR[Orn]VL[Abu]QLSAR[Orn]LLQDI[Nle]SRQ[GABA]-NH2), in assay [1], the “Relative affinitiy … vs GHRH” value is 81.2. Further, the “Relative affinitiy … vs JI-38” value in assay [1] is 34.2; in assay [2] it was 5.06.
